In ChEMBL document CHEMBL6087446, “Hypoxia Activated Nitric Oxide Donor Compounds for the Prevention and Treatment of Myocardial Hypoxia-Induced Injury” (J Med Chem, 2025):
The source made the active and inactive calls. The rule behind the calls is not given here.

Tests used:
[1] = Half life in female Balb/c mouse at 8 mg/kg, ip measured up to 24 hrs by LC-MS/MS analysis; format: ADME, organism-based; settings: in vivo
Mus musculus [2] = experiment: Prevention of myocardial hypoxia injury in isoproterenol-induced male C57 mouse myocardial injury model assessed as decrease in ACE expression at 8 to 16 mg/kg, ip once daily for 3 consecutive days by immunohistochemistry; format: functional, organism-based; settings: dose 8-16 mg/kg, time 3.0 day
H9c2 [3] = experiment: Prevention of hypoxia-induced decrease in ATP level in rat H9c2 cells at 10 uM […] (Rvb =- 19.6 nmol/mg); format: ADME, cell-based; settings: h9c2, 10 µM
Mus musculus [4] = experiment: Prevention of myocardial hypoxia injury in isoproterenol-induced male C57 mouse myocardial injury model assessed as heart weight ratio at 16 mg/kg, ip once daily for 3 consecutive days (reference value: 0.60%); format: functional; settings: time 3 day
Mus musculus [5] = experiment: Prevention of myocardial hypoxia injury in isoproterenol-induced male C57 mouse myocardial injury model assessed as heart weight ratio at 8 mg/kg, ip once daily for 3 consecutive days (reference value: 0.60%); format: functional; settings: time 3 day
[6] = Toxicity in male C57 mouse assessed as physiological distress at 900 mg/kg, ip measured after 12 hrs of administration; format: organism-based; settings: in vivo
Mus musculus [7] = experiment: Prevention of myocardial hypoxia injury in isoproterenol-induced male C57 mouse myocardial injury model assessed as reduction in creatine kinase-MB (CK-MB) at 8 to 16 mg/kg, ip once daily for 3 consecutive days by immunohistochemistry; format: functional, organism-based; settings: dose 8-16 mg/kg, time 3.0 day
Mus musculus [8] = experiment: Prevention of myocardial hypoxia injury in isoproterenol-induced male C57 mouse myocardial injury model assessed as antihypertrophic effect at 8 mg/kg, ip once daily for 3 consecutive days; format: functional, organism-based; settings: time 3.0 day
Mus musculus [9] = experiment: Prevention of myocardial hypoxia injury in isoproterenol-induced male C57 mouse myocardial injury model assessed as reduction in cardiac troponin (CK) at 8 to 16 mg/kg, ip once daily for 3 consecutive days by immunohistochemistry; format: functional, organism-based; settings: dose 8-16 mg/kg, time 3.0 day
Mus musculus [10] = experiment: Prevention of myocardial hypoxia injury in isoproterenol-induced male C57 mouse myocardial injury model assessed as decrease in heart weight ratio at 8 mg/kg, ip once daily for 3 consecutive days (reference value: 0.68%); format: functional; parameters: scale not given: the % may be the effect or the level left; settings: time 3 day
H9c2 [11] = experiment: Induction of NO release in rat H9c2 cells under hypoxia condition at 10 uM by Griess reagent assay relative to control; format: functional
Mus musculus [12] = experiment: Prevention of myocardial hypoxia injury in isoproterenol-induced male C57 mouse myocardial injury model assessed as reduction in creatine kinase-MB (CK-MB) at 5 mg/kg, ip once daily for 3 consecutive days by immunohistochemistry; format: functional, organism-based; settings: time 3.0 day
H9c2 [13] = experiment: Induction of NO release in rat H9c2 cells under normoxic condition at 10 uM measured for 4 hrs by Griess reagent assay relative to control; format: functional
H9c2 [14] = experiment: Prevention of hypoxia-induced ACE expression in rat H9c2 cells assessed as inhibition of ACE overexpression at 10 uM measured after 4 hrs incubation; format: functional, cell-based
Mus musculus [15] = experiment: Prevention of myocardial hypoxia injury in isoproterenol-induced male C57 mouse myocardial injury model assessed as prevention of lamellar collagen fiber deposition at 8 to 16 mg/kg, ip once daily for 3 consecutive days by Masson staining based analysis; format: functional, organism-based; settings: dose 8-16 mg/kg, time 3.0 day
Mus musculus [16] = experiment: Prevention of myocardial hypoxia injury in isoproterenol-induced male C57 mouse myocardial injury model assessed as decrease in myocardial size at 8 mg/kg, ip once daily for 3 consecutive days (reference value: 6.47 mm); format: functional; settings: time 3 day
[17] = Toxicity in isoproterenol-induced male C57 mouse assessed as body weight change at 5 mg/kg, ip once daily for 3 consecutive days; format: organism-based; settings: in vivo, 72 h, time 3 day
H9c2 [18] = experiment: Prevention of hypoxia-induced TSP1 expression in rat H9c2 cells assessed as inhibition of TSP1 overexpression at 10 uM measured after 4 hrs incubation; format: functional, cell-based
Mus musculus [19] = experiment: Prevention of myocardial hypoxia injury in isoproterenol-induced male C57 mouse myocardial injury model assessed as increase in NO level in myocardial tissue at 8 to 16 mg/kg, IG once daily for 3 consecutive days; format: functional, organism-based; settings: dose 8-16 mg/kg, time 3.0 day
[20] = Toxicity in male C57 mouse assessed as mortality at 900 mg/kg, ip measured up to 14 days observation period; format: organism-based; settings: in vivo, 336 h, time < 14 day
[21] = AUC (0 to infinity) in female Balb/c at 8 mg/kg, ip mouse measured up to 24 hrs by LC-MS/MS analysis; format: ADME, organism-based; settings: in vivo
Mus musculus [22] = experiment: Prevention of myocardial hypoxia injury in isoproterenol-induced male C57 mouse myocardial injury model assessed as increase in NO level in myocardial tissue at 8 to 16 mg/kg, ip once daily for 3 consecutive days; format: functional, organism-based; settings: dose 8-16 mg/kg, time 3.0 day
H9c2 [23] = experiment: Prevention of hypoxia-induced mTORC1 expression in rat H9c2 cells assessed as inhibition of mTORC1 overexpression at 10 uM measured after 4 hrs incubation; format: functional, cell-based
Mus musculus [24] = experiment: Prevention of myocardial hypoxia injury in isoproterenol-induced male C57 mouse myocardial injury model assessed as decrease in mTORC1 expression at 8 to 16 mg/kg, ip once daily for 3 consecutive days by immunohistochemistry; format: functional, organism-based; settings: dose 8-16 mg/kg, time 3.0 day
H9c2 [25] = experiment: Prevention of hypoxia-induced apoptosis in rat H9c2 cells assessed as decrease in late apoptosis and necrosis by measuring reduced red fluorescence at 10 uM incubated for 4 hrs by confocal microscopy with Annexin V-FITC and propidium iodide (PI) double staining analysis; format: functional, cell-based
H9c2 [26] = experiment: Prevention of hypoxia-induced TSC2-P expression in rat H9c2 cells assessed as inhibition of TSC2-P overexpression at 10 uM measured after 4 hrs incubation; format: functional, cell-based
Mus musculus [27] = experiment: Prevention of myocardial hypoxia injury in isoproterenol-induced male C57 mouse myocardial injury model assessed as antihypertrophic effect at 16 mg/kg, ip once daily for 3 consecutive days; format: functional, organism-based; settings: time 3.0 day
[28] = Cmax in female Balb/c mouse at 8 mg/kg, ip measured up to 24 hrs by LC-MS/MS analysis; format: ADME, organism-based; settings: in vivo
Mus musculus [29] = experiment: Prevention of myocardial hypoxia injury in isoproterenol-induced male C57 mouse myocardial injury model assessed as pathological myocardial change by heart sections at 8 to 16 mg/kg, ip once daily for 3 consecutive days by hematoxylin and eosin staining based analysis; format: functional, organism-based; settings: dose 8-16 mg/kg, time 3.0 day
[30] = Induction of NO release in rat H9c2 cells at 10 uM by Griess reagent assay relative to control; format: functional
[31] = AUC (0 to last) in female Balb/c at 8 mg/kg, ip mouse measured up to 24 hrs by LC-MS/MS analysis; format: ADME, organism-based; settings: in vivo
H9c2 [32] = experiment: Prevention of hypoxia-induced apoptosis in rat H9c2 cells assessed as decrease in early apoptosis by measuring reduced green fluorescence at 10 uM incubated for 4 hrs by confocal microscopy with Annexin V-FITC and propidium iodide (PI) double staining analysis; format: functional, cell-based
H9c2 [33] = experiment: Prevention of hypoxia-induced decrease cell viability of rat H9c2 cells at 10 uM by CCK8 assay; format: functional, cell-based
Mus musculus [34] = experiment: Prevention of myocardial hypoxia injury in isoproterenol-induced male C57 mouse myocardial injury model assessed as reduction in creatine kinase (CK) at 8 to 16 mg/kg, ip once daily for 3 consecutive days by immunohistochemistry; format: functional, organism-based; settings: dose 8-16 mg/kg, time 3.0 day
[35] = Toxicity in male C57 mouse assessed as adverse effect at 900 mg/kg, ip measured up to 14 days observation period; format: organism-based; settings: in vivo, 336 h, time < 14 day

With `CN(N=O)c1ccc(OCc2ccc([N+](=O)[O-])c(F)c2)cc1` the half-life [1] was 2.39 h, the Activity (Mus musculus [2]) was “Active” and the Activity (H9c2 [3]) was 37.9 nmol/mg. For the same compound, the Activity (Mus musculus [4]) was 0.51%, the Activity (Mus musculus [5]) was 0.54% and the Activity [6] was “Non-toxic”. The Activity (Mus musculus [7]) was “Active”, the Activity (Mus musculus [8]) was “Active” and the Activity (Mus musculus [9]) was “Active”. For the same compound, the Activity (Mus musculus [10]) was 0.53%, the Activity (H9c2 [11]) was 26.54% and the Activity (Mus musculus [12]) was “Active”. For the same compound, the Activity (H9c2 [13]) was 20%, the Activity (H9c2 [14]) was “Active” and the Activity (Mus musculus [15]) was “Active”. For the same compound, the Activity (Mus musculus [16]) was 2.53 mm, the Activity [17] was “Non-toxic” and the Activity (H9c2 [18]) was “Active”. The Activity (Mus musculus [19]) was “Active”, the Activity [20] was “Non-toxic” and the AUC [21] was 640 ng·h/mL. The Activity (Mus musculus [22]) was “Active”, the Activity (H9c2 [23]) was “Active” and the Activity (Mus musculus [24]) was “Active”. The Activity (H9c2 [25]) was “Active; Reduced Red Fluorescence To Certain Extents”, the Activity (H9c2 [26]) was “Active” and the Activity (Mus musculus [27]) was “Active”. The Cmax [28] was 450 ng/mL, the Activity (Mus musculus [29]) was “Active” and the Activity [30] was <5%. The AUC(0-t) at 24 h [31] was 626 ng·h/mL, the Activity (H9c2 [32]) was “Active; Green Fluorescence Intensity Wes Lower Than Ismn Treated Cells” and the Activity (H9c2 [33]) was “Active; Partially Restores Cell Viability”. For the same compound, the Activity (Mus musculus [34]) was “Active” and the Activity [35] was “Non-toxic”.
